These results are taken from US20070212360A1, “Modulation of mitochondrial oxygen consumption for therapeutic purposes” (priority 2006, published 2007).

Test [1] deals with primary human or immortalized mouse fibroblasts. The test can be described thus: Oxygen consumption of fibroblast suspensions (Clark electrode). The test is classed as cell-based. Here is the method: FIG. 1. Hypoxia inhibits mitochondrial oxygen consumption. A: Oxygen concentration curves generated using a Clark electrode for fibroblast suspensions from cultures exposed to normoxia or hypoxia for 24 h. Arrows indicate addition of the mitochondrial uncoupler CCCP and cytochrome poison cyanide. The slope of the curve is a measure of the rate of oxygen consumption. B: Average oxygen consumption rates in normal human fibroblasts and immortalized murine fibroblasts cultured in normoxia or 0.5% O2 for 24 h. C: Fraction of total oxygen consumption due to mitochondrial versus non-mitochondrial consumption in wild-type murine fibroblasts. Mitochondrial consumption was determined using 1 ug/ml of the cell permeable complex 3 inhibitor Antimycin A. D: Change in oxygen consumption in RKO cells after exposure to the indicated time in 0.5% O2, and time to recovery in normoxia following 24 h hypoxia. For all graphs, the error bars represent the standard error of the mean.
Oxygen consumption measurements. […] Oxygen consumption was measured in a 0.5 ml volume using an Oxytherm electrode unit (Hansatech, Norfolk, UK). […]
HIF-1 downregulates mitochondrial oxygen consumption. Having identified several putative HIF-1 responsive gene products that had the potential to regulate mitochondrial function, we then directly measured mitochondrial oxygen consumption in cells exposed to long term hypoxia. […]

Test [2] has as its system experimental tumors. The following applies: literature reference (28); cited from earlier work.
Test [3] concerns RKO and RKOShHIF1α 5×HRE-luciferase reporter tumors. The test can be described thus: Bioluminescent imaging of HRE-luciferase reporter tumors in vivo. Further details: species or system mouse. The following applies: twelve hours after single dose 60 mg/kg tirapazamine ip. Here is the method:
FIG. 8. Increasing oxygen consumption by inhibition of PDK activity increases tumor hypoxia. (a) Luciferase activity of wildtype and HIF1α knockdown RKO cells stably transfected with a HIF1 responsive luciferase reporter gene. Cells were exposed to 0.5% O2 for 24 hours in triplicate. Luminescence is normalized to normoxic HIF wildtype cells. (b) Luciferase activity of wildtype RKO HIF1 reporter cells exposed to 0.5% O2 for 24 hours in the presence of increasing concentrations of echinomycin. Data are normalized to the increase in signal observed in the absence of drug. (c) Bioluminescent imaging in vivo. Images show a representative animal bearing an RKO reporter tumor on the left flank and an RKOShHIF1α reporter tumor on the right flank as a function of time after ip injection of 50 mg/kg DCA. […] (d) Quantification of in vivo bioluminescence. […] The data represent the mean of three independent experiments, each comprising 5 RKO and 5 RKOShHIF1α reporter tumors.
FIG. 14. Luciferase activity of hypoxia reporter tumors in response to tirapazamine. Mice bearing 500 mm^3 RKO HRE-luciferase tumors were imaged using an IVIS100 bioluminescent imaging system, and the signal from each tumor was quantified. […]
Bioluminescent imaging. […] After 10 min, bioluminescence was measured in a Xenogen IVIS100 imaging system (Xenogen). Data was quantified by measuring total photons/s from uniform regions of interest. […]

In test [4] the test system is HIFwt and HIFko MEFs. The test can be described thus: Tirapazamine toxicity by colony formation (clonogenic viability). The test is classed as cell-based, mouse. Here is the method: FIG. 6. HIF dependent decrease in oxygen consumption raises intracellular oxygen concentration, protects when oxygen is limiting, and decreases sensitivity to tirapazamine in vitro. A: Pimonidazole was used to determine the intracellular oxygen concentration of cells in culture. HIFwt and HIFko MEFs were grown at high density and exposed to 2% O2 or anoxia for 24 h in glass dishes. For the last 4 hours of treatment, cells were exposed to 60 μg/ml pimonidazole. Pimonidazole binding was quantitated by flow cytometry after binding of an FITC conjugated anti-pimo mAb. Results are representative of two independent experiments. B: HIF1α reduces oxygen consumption and protects cells when total oxygen is limited. HIFwt and HIFko cells were plated at high density and sealed in aluminum jigs at <0.02% oxygen. At the indicated times, cells were harvested and dead cells were quantitated by trypan blue exclusion. […] C. PDK1 is responsible for HIF-1's adaptive response when oxygen is limiting. A similar jig experiment was performed to measure survival in the parental RKO, the RKO ShRNAHIF1α and the RKOShPDK1 cells. Cell death by trypan blue uptake was measured 48 h after the jigs were sealed. D: HIF status alters sensitivity to TPZ in vitro. HIFwt and HIFko MEFs were grown at high density in glass dishes and exposed to 21%, 2%, and <0.01% O2 conditions for 18 hours in the presence of varying concentrations of Tirapazamine. After exposure, cells were harvested, and replated under normoxia to determine clonogenic viability. Survival is calculated relative to the plating efficiency of cells exposed to 0 μM TPZ for each oxygen concentration. Error bars represent the standard error of the mean. E: Cell density alters sensitivity to TPZ. HIFwt and HIFko MEFs were grown at varying cell densities in glass dishes and exposed to 2% O2 in the presence of 10 μM TPZ for 24 h. After the exposure, survival was determined as described in […].
Cell lines and cell culture. Primary human fibroblasts have been described previously (Denko et al., 2003; Kim et al., 1997) and RKO human colon carcinoma cells were obtained from the American Type Culture Collection (ATCC, Manassas, Va.). RCC4, RCC4/VHL, and RCC4/Y98H human renal cell carcinoma cell lines have also been described previously (Chan et al., 2005). Wildtype and HIF-1α knockout mouse embryo fibroblasts (MEFs) were a gift from Dr. R Johnson (University of California, San Diego). All cells were grown in vitro as monolayers in Dulbeco's Modified Eagle's Media (DMEM) supplemented with 10% fetal bovine serum (FBS). For treatment with moderate hypoxia, cell culture dishes were placed into an Invivo2 humidified hypoxia workstation (Ruskinn Technologies, Bridgend, UK) at the indicated oxygen concentrations. Severe hypoxia was generated in an anaerobic workstation with a palladium catalyst (Sheldon Co., Cornelius, Oreg.). Tirapazamine toxicity was measured in cells plated overnight at the indicated density in glass dishes. The next day, fresh media was added containing the indicated concentration of TPZ, and the cells placed in the indicated oxygen environment. 24 hours later, the cells were trypsinized, counted, and plated for colony formation in normoxia.
Because HIF-1 can help cells adapt to hypoxia and maintain some intracellular oxygen level, it may also protect tumor cells from killing by the hypoxic cytotoxin tirapazamine (TPZ). TPZ toxicity is very oxygen dependent, especially at oxygen levels between 1-4% (Koch, 1993). We therefore tested the relative sensitivity of the HIFwt and HIFko cells to TPZ killing in high density cultures (FIG. 6d). We exposed the cells to the indicated concentrations of drug and oxygen concentrations overnight. The cells were then harvested and replated to determine reproductive viability by colony formation. […] The lower oxygen level is significant enough to dramatically sensitize these cells to killing by TPZ.

Turning to `N#CC(C#N)=NNc1cccc(Cl)c1` [CCCP, carbonyl cyanide 3-chloro phenylhydrazone], the “effect on total cellular oxygen consumption” value in test [1] (fibroblast suspensions from normoxic and hypoxic (24 h) cultures, mitochondrial uncoupler) was “stimulated”. In test [1] (hypoxia treated cells), the “effect on oxygen consumption in hypoxia treated cells” value is reported as “increase oxygen consumption”.
In the case of `Nc1n[n+]([O-])c2ccccc2[n+]1[O-]` [tirapazamine], the “reduction of the hypoxic fraction of experimental tumors” value in test [2] is recorded as “greater than 10 fold”. The “reduction of luciferase signal of HRE-reporter tumors” value in test [3] stood at 90%. Also, the “cell-density effect on TPZ toxicity in HIFko cells” value in test [4] (2% O2, 10 μM TPZ, 24 h, HIFko) is “much more pronounced”. Besides, the “cell-density effect on TPZ toxicity in HIFwt cells” value in test [4] (2% O2, 10 μM TPZ, 24 h, HIFwt, highest density cultures) is listed as “some increased toxicity”. Further, the “effect of increased cell density on TPZ toxicity” value in test [4] (2% O2, 10 μM TPZ, 24 h, varying cell densities) is recorded as “increased TPZ toxicity”. Moreover, the “sensitivity of HIF-null cells to the drug relative to wild type cells” value in test [4] (2% oxygen, high density cultures, overnight) is reported as “significantly greater sensitivity”. Besides, the “sensitivity to TPZ killing (colony formation), HIFwt vs HIFko” value in test [4] (21% oxygen, high density cultures, overnight) is recorded as “equally resistant”; in test [4] (anoxic conditions, high density cultures, overnight) it was “equally sensitive”.
